In brackets after ≈: the same amount, converted by molar mass.

The test system of assay [1] is Mus musculus. The assay is described as follows: Compound was evaluated for antitumor activity in P388/VCR-bearing mice at 200 mg/Kg as in the presence of vincristine at 0.1 mg/kg. Type of assay: functional.
Assay [2] relates to Mus musculus. Nature of the assay: Compound was evaluated for antitumor activity in P388/VCR-bearing mice at 200 mg/Kg. Type of assay: functional.
Assay [3] has as its system Mus musculus. Nature of the assay: Compound was evaluated for antitumor activity in P388/VCR-bearing mice at 200 mg/kg in the presence of vincristine at 0.1 mg/kg. Type of assay: functional.
A short description of assay [4]: Cytotoxic activity was evaluated against Epidermoid Carcinoma KB cells. Type of assay: functional, cell-based. As to conditions: Homo sapiens.
Assay [5] concerns L1210. The assay is described as follows: Cytotoxic activity was evaluated against murine Leukemia L1210 cells. Type of assay: functional, cell-based. Conditions: Mus musculus.
The test system of assay [6] is Mus musculus. The assay is described as follows: Compound was evaluated for antitumor activity in P388/VCR-bearing mice at 200 mg/kg as in the presence of vincristine at the 0.1 mg/kg. Type of assay: functional.
The subject of assay [7] is Mus musculus. Nature of the assay: Compound was evaluated for antitumor activity in P388/VCR-bearing mice at 200 mg/kg in the presence of vincristine at 0.2 mg/kg. Type of assay: functional.
Assay [8] is described as follows: Effect on cellular accumulation of Vincristine in multidrug resistant human ovarian cancer 2780AD cells was determined in the presence at a dose 10 ug/mL of taxoids. Type of assay: functional, A2780 ADR.
The subject of assay [9] is Mus musculus. Nature of the assay: Compound was evaluated for antitumor activity in P388/VCR-bearing mice at 0.2 mg/Kg as in the presence of vincristine at 0.1 mg/kg as the ratio of median survival time of treated mice to control mice. Type of assay: functional.
The subject of assay [10] is Mus musculus. The assay is described as follows: Compound was evaluated for antitumor activity in P388/VCR-bearing mice at 0.2 mg/Kg as range. Type of assay: functional.
Assay [11] has as its system Mus musculus. The assay is described as follows: Compound was evaluated for antitumor activity in P388/VCR-bearing mice at 0.2 mg/Kg as the ratio of median survival time of treated mice to control mice. Type of assay: functional.
The subject of assay [12] is Mus musculus. The assay is described as follows: Compound was evaluated for antitumor activity in P388/VCR-bearing mice at 0.2 mg/Kg in the presence of vincristine at 0.1 mg/kg as percent ratio of median survival time of treated mice to control mice. Type of assay: functional.
Assay [13] concerns Mus musculus. Nature of the assay: Compound was evaluated for antitumor activity in P388/VCR-bearing mice at 0.2 mg/Kg as percent ratio of median survival time of treated mice to control mice. Type of assay: functional.
In assay [14] the test system is Mus musculus. Nature of the assay: Compound was evaluated for antitumor activity in P388/VCR-bearing mice at 0.2 mg/Kg in the presence of vincristine at 0.1 mg/kg as range. Type of assay: functional.
A short description of assay [15]: Effect on cellular accumulation of Vincristine in multidrug resistant human ovarian cancer 2780AD cells was determined at a dose 10 ug/mL. Type of assay: functional, A2780 ADR.

As for `C=C1C2[C@H](OC(C)=O)[C@@H]3CC(=O)[C@@H](C)C([C@@H](OC(C)=O)[C@H](OC(C)=O)[C@]2(C)CC[C@@H]1OC(=O)/C=C/c1ccccc1)C3(C)C` (some centres undefined), the Range in assay [1] turned out to be 10 days; in assay [7], 12 days. Also, the T/C turned out to be 138% in [2] and 105% in assay [6]. Also, the entries for the “Median T/C” value in assay [3] and in [7] were 12 days and 15.8 days, respectively. In addition, the IC50 was above 10 µg/mL in assay [4] and 5.8 µg/mL (≈ 9.53 µM) in [5].

With `C=C1[C@@H](OC(=O)/C=C/c2ccccc2)C[C@H](OC(C)=O)[C@]2(C)[C@@H]1C[C@@H]1C[C@H](O)C(C)=C([C@@H](OC(C)=O)[C@@H]2OC(C)=O)C1(C)C` [TAXEZOPIDINE H], the figures for the half-maximal inhibitory concentration (IC50) in assay [4] and in assay [5] were above 10 µg/mL and 6.2 µg/mL (≈ 10.2 µM), respectively.

The compound `CC(=O)O[C@H]1C(=O)[C@@]2(C)[C@H]([C@H](OC(=O)c3ccccc3)[C@]3(O)C[C@H](OC(=O)[C@H](O)[C@@H](NC(=O)c4ccccc4)c4ccccc4)C(C)=C1C3(C)C)[C@]1(OC(C)=O)CO[C@@H]1C[C@@H]2O` [PACLITAXEL] came in with an IC50 in [5] of 0.33 µg/mL (≈ 0.386 µM).

Take `C=C1[C@@H](OC(=O)/C=C/c2ccccc2)C[C@H](O)[C@@]2(C)[C@@H](O)[C@H](OC(C)=O)C3=C(C)C(=O)C[C@@H]([C@@H](O)[C@H]12)C3(C)C`: the IC50 in assay [4] was 8.5 µg/mL (≈ 15.8 µM); in [5], above 10 µg/mL.

In the case of `CC(=O)O[C@@]12CO[C@@H]1C[C@H](O)[C@@]1(C)C(=O)[C@H](OC(=O)CC(C)O)C3=C(C)[C@@H](OC(=O)[C@H](O)[C@@H](NC(=O)c4ccccc4)c4ccccc4)C[C@@](O)([C@@H](OC(=O)c4ccccc4)[C@H]21)C3(C)C` (some centres undefined), the IC50 amounted to 0.0025 µg/mL (≈ 0.00278 µM) in assay [4] and 0.95 µg/mL (≈ 1.06 µM) in [5].

As for `CCCCCC(=O)N(C)[C@@H](c1ccccc1)[C@@H](O)C(=O)O[C@H]1C[C@@]2(O)[C@@H](OC(=O)c3ccccc3)[C@@H]3[C@]4(OC(C)=O)CO[C@@H]4C[C@H](O)[C@@]3(C)C(=O)[C@H](OC(C)=O)C(=C1C)C2(C)C`, the IC50 turned out to be 0.17 µg/mL (≈ 0.197 µM) in assay [4] and 0.48 µg/mL (≈ 0.557 µM) in assay [5].

Regarding `C=C1[C@@H](O)CC[C@@]2(C)[C@@H](O)[C@H](OC(C)=O)C3=C(C)C(=O)C[C@@H]([C@@H](O)[C@H]12)C3(C)C`, the IC50 in assay [4] and in assay [5] was above 10 µg/mL in each case.

Regarding `C=C1[C@@H](O)C[C@H](OC(C)=O)[C@@]2(C)[C@@H](OC(C)=O)[C@H](OC(C)=O)C3=C(C)[C@@H](O)C[C@@H]([C@@H](OC(C)=O)[C@H]12)C3(C)C`, the half-maximal inhibitory concentration (IC50) in assay [4] was 9.2 µg/mL (≈ 17.1 µM); in [5], above 10 µg/mL.

Take `CC(=O)O[C@H]1C(=O)[C@@]2(C)[C@H]([C@H](OC(=O)c3ccccc3)[C@]3(O)C[C@H](O)C(C)=C1C3(C)C)[C@]1(OC(C)=O)CO[C@@H]1C[C@@H]2O` [BACCATIN III]: the results for the half-inhibitory concentration (IC50) in [4] and in assay [5] were 10 µg/mL (≈ 17 µM) and above 10 µg/mL, respectively. This compound had a VCR accumulation in [8] of 84.

With `C=C1[C@@H](OC(=O)/C=C/c2ccccc2)CC[C@@]2(C)[C@@H](OC(C)=O)[C@H](OC(C)=O)C3=C(C)[C@@H](OC(C)=O)C[C@@H]([C@@H](O)[C@H]12)C3(C)C`, the half-inhibitory concentration (IC50) in assay [4] is 9.2 µg/mL (≈ 15.1 µM); in [5], 5.8 µg/mL (≈ 9.53 µM).

Consider `CC[C@]1(O)C[C@H]2CN(CCc3c([nH]c4ccccc34)[C@@](C(=O)OC)(c3cc4c(cc3OC)N(C=O)[C@H]3[C@@](O)(C(=O)OC)[C@H](OC(C)=O)[C@]5(CC)C=CCN6CC[C@]43[C@@H]65)C2)C1` [VINCRISTINE], for which the entries for the “Median T/C” value in assay [9] and in assay [11] were 10.6 days and 12.6 days, respectively. Also, the Range in assay [10] and in [14] was 10 days in each case. The T/C in assay [12] is recorded as 92%; in assay [13] it was 110%.

As for `CC(=O)O[C@H]1C2=C(CO)[C@@H](O)CC[C@@]2(C)[C@@H](OC(C)=O)[C@H](OC(C)=O)[C@@]2(O)[C@H](C)C(=O)C[C@@H]1C2(C)C`, the IC50 in assay [4] is 2.6 µg/mL (≈ 5.09 µM); in assay [5], above 10 µg/mL. Also, the VCR accumulation in [15] was found to be 203.

Turning to `C=C1[C@@H](O)CC[C@@]2(C)[C@@H](OC(C)=O)[C@H](O)C3=C(C)C(=O)C[C@@H]([C@@H](O)[C@H]12)C3(C)C`, the IC50 in assay [4] and in assay [5] was above 10 µg/mL throughout.

As to `C=C1[C@@H](OC(=O)/C=C/c2ccccc2)CC[C@@]2(C)[C@@H](OC(C)=O)[C@H](OC(C)=O)[C@@]34[C@H](C)C(=O)C[C@@H]([C@@H](OC(C)=O)[C@@]132)C4(C)C` [TAXUSPINE C], the IC50 in assay [4] and in assay [5] was above 10 µg/mL in each case.

The T/C is the ratio of treated to control. For orientation: IC50 means the concentration at which inhibition is half-maximal. A high value points to weaker potency in that assay.

The values above are taken from ChEMBL document CHEMBL1130845, “Modulation of multidrug resistance by taxuspine C and other taxoids from Japanese yew” (Bioorg Med Chem Lett, 1998).
